Entries after “also recorded” stand apart in the source; their conditions may differ.

From patent US9890432B2, “PRDM14 and FAM19A4, molecular diagnostic markers for HPV-induced invasive cancers and their high-grade precursor lesions” (SELF-SCREEN B.V., priority 2013, dated 2018) come the findings set out here.

The experiment has as its system PRDM14 mRNA expression in SiHa cervical cancer cells. As to the kind of experiment: PRDM14 mRNA expression in SiHa cells after treatment with a DNA methylation inhibitor. Particulars: DAC at 0.2 μM and 5 μM, controls PBS and ethanol. In kind it is cell-based, human. The protocol:
Treatment of SiHa cervical cancer cells was performed with the methylation inhibitor 2′-deoxy-5′azacytidine (5′-aza or DAC) at 0.2 μM and 5 μM concentration. Other treatments were PBS and ethanol (EtOH). All treatments were in duplicate. Controls are human reference RNA and a -RT control (without reverse transcriptase added to the cDNA reaction mixture).

For the compound `Nc1ncn([C@H]2C[C@H](O)[C@@H](CO)O2)c(=O)n1` [DAC, 5-aza-2 deoxycytidine], the “PRDM14 mRNA expression” value is recorded as “upregulated; also recorded: upregulation”.
